Measured values: the supplement of paper PMC5579334
± gives the standard deviation of the averaged measurements.

Assays:
HS-PSS [1] = test: drug sensitivity score (DSS, CellTiter-Glo viability, 72 h) (DSS (dimensionless)); higher = more sensitive; extreme values may be limits of the assay
How it was run: (§1)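 MPNST cell lines and primary human Schwann cells were seeded at 750–1000 cells per well into 384-well plates preprinted with each compound at five concentrations in 10-fold steps, then incubated 72 h at 37 °C, 5% CO2. CellTiter-Glo ATP luminescence gave viability, scaled between vehicle and positive-control wells, with duplicates averaged where present. Curves were fitted with a four-parameter logistic model. Percent inhibition refers to the top concentration, while drug sensitivity score and relative IC50, censored at the top concentration, come from these fits.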

HS-Sch-2 [2] = test: as above
How it was run: as §1

[3] = system: HSC1 (primary human Schwann cells); test: as above
How it was run: as §1

[4] = system: HSC2 (primary human Schwann cells); test: as above
How it was run: as §1

S1507-2 [5] = test: as above
How it was run: as §1

S462 [6] = test: as above
How it was run: as §1

ST8814 [7] = test: as above
How it was run: as §1

STS26T [8] = test: as above
How it was run: as §1

YST-1 [9] = test: as above
How it was run: as §1

HS-PSS [10] = test: drug sensitivity score (DSS, CellTox-Green cytotoxicity, 72 h) (DSS (dimensionless)); higher = more cytotoxic; extreme values may be limits of the assay
How it was run: (§2)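 For 72 h at 37 °C, MPNST cell lines and primary human Schwann cells were exposed in 384-well plates to five 10-fold compound dilutions. CellTox-Green, added before seeding at a final 1:1000 dilution, gave fluorescence from DNA released by disrupted cells. Signals were scaled to vehicle and positive-control wells, cultures failing plate quality control were left out, and four-parameter logistic fits were applied. Relative IC50 and drug sensitivity score were derived from the fits, with IC50 censored at the top concentration.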

[11] = system: HSC1 (primary human Schwann cells); test: as above
How it was run: as §2

[12] = system: HSC2 (primary human Schwann cells); test: as above
How it was run: as §2

S1507-2 [13] = test: as above
How it was run: as §2

ST8814 [14] = test: as above
How it was run: as §2

STS26T [15] = test: as above
How it was run: as §2

HS-PSS [16] = test: % inhibition of CellTiter-Glo viability at highest tested concentration (72 h), relative to DMSO and benzethonium chloride controls; higher = more inhibition
How it was run: as §1

HS-Sch-2 [17] = test: as above
How it was run: as §1

[18] = system: HSC1 (primary human Schwann cells); test: as above
How it was run: as §1

[19] = system: HSC2 (primary human Schwann cells); test: as above
How it was run: as §1

S1507-2 [20] = test: as above
How it was run: as §1

S462 [21] = test: as above
How it was run: as §1

ST8814 [22] = test: as above
How it was run: as §1

STS26T [23] = test: as above
How it was run: as §1

YST-1 [24] = test: as above
How it was run: as §1

| SMILES | drug sensitivity score (HS-PSS [1]) | drug sensitivity score (HS-Sch-2 [2]) | drug sensitivity score [3] | drug sensitivity score [4] | drug sensitivity score (S1507-2 [5]) | drug sensitivity score (S462 [6]) | drug sensitivity score (ST8814 [7]) | drug sensitivity score (STS26T [8]) | drug sensitivity score (YST-1 [9]) | drug sensitivity score (HS-PSS [10]) | drug sensitivity score [11] | drug sensitivity score [12] | drug sensitivity score (S1507-2 [13]) | drug sensitivity score (ST8814 [14]) | drug sensitivity score (STS26T [15]) | % inhibition (HS-PSS [16]) [%] | % inhibition (HS-Sch-2 [17]) [%] | % inhibition [18] [%] | % inhibition [19] [%] | % inhibition (S1507-2 [20]) [%] | % inhibition (S462 [21]) [%] | % inhibition (ST8814 [22]) [%] | % inhibition (STS26T [23]) [%] | % inhibition (YST-1 [24]) [%] |
| --- | --- | --- | --- | --- | --- | --- | --- | --- | --- | --- | --- | --- | --- | --- | --- | --- | --- | --- | --- | --- | --- | --- | --- | --- |
| Cc1cc(Nc2nc(N[C@@H](C)c3ncc(F)cn3)ncc2Cl)[nH]n1 [AZD1480] (max concentration tested 1000 nM) | 0.78 | 0 | 2.84 | 0.934 | 0.0872 ± 0.12 | 1.64 ± 0.2 | 0.0148 | 0.3 | 0.54 | 0 | 0 | 0.662 | 5.43 ± 7.7 | 0 | 0 | 20.3 | 2.41 | 37.6 | 17 | 11.6 ± 8 | 26.4 ± 3.4 | 10.4 | 18.1 | 20.3 |
| CNC(=O)c1cccc(-c2ccc3c(N4CCOC[C@@H]4C)nc(N4CCOC[C@@H]4C)nc3n2)c1 [AZD2014] (max concentration tested 10000 nM) | 10.4 | 11.7 | 15.2 | 15 | 12.6 ± 1 | 11.1 ± 0.51 | 10.7 | 12 | 17.9 | 0 | 0 | 0 | 0 | 0 | 0 | 69.8 | 71 | 87.4 | 87.1 | 75.49 ± 0.4 | 66.2 ± 1.5 | 78.5 | 75.4 | 79.2 |
| COc1cc(CCc2cc(NC(=O)c3ccc(N4CC(C)NC(C)C4)cc3)n[nH]2)cc(OC)c1 (configuration not stated) [AZD4547] (max concentration tested 1000 nM) | 0 | 1.94 | 3.09 | 0 | 1.28 ± 0.63 | 2.85 ± 0.75 | 0 | 0 | 0 | 0 | 0 | 0 | 0.158 ± 0.22 | 0 | 0 | 4.91 | 33.5 | 22.4 | 4.39 | 22.2 ± 3.5 | 24.6 ± 2.2 | 9.11 | -2.98 | 3.65 |
| NC(=O)Nc1cc(-c2cccc(F)c2)sc1C(=O)N[C@H]1CCCNC1 [AZD7762] (max concentration tested 1000 nM) | 4.8 | 12.7 | 6.7 | 3.95 | 10.9 ± 0.13 | 14.7 ± 0.2 | 8.3 | 9.05 | 4.02 | 0.32 | 3.66 | 5.55 | 3.7 ± 0.91 | 5.42 | 9.01 | 61.9 | 90.7 | 72.8 | 70.2 | 80.47 ± 0.4 | 98.22 ± 0.35 | 86.2 | 90.7 | 71.9 |
| COc1ccc(-c2ccc3c(N4CCOC[C@@H]4C)nc(N4CCOC[C@@H]4C)nc3n2)cc1CO [AZD8055] (max concentration tested 10000 nM) | 17 | 17.9 | 26.2 | 27.2 | 22.5 ± 1.3 | 22.3 ± 1.8 | 18 | 21 | 25.1 | 0.77 | 0 | 0 | 0 | 0.371 | 0 | 70.7 | 75.8 | 89.3 | 89.9 | 85.4 ± 0.61 | 74.8 ± 1.4 | 84.1 | 82 | 78.6 |
| C[C@]12CC[C@H](O)CC1=CC[C@@H]1[C@@H]2CC[C@]2(C)C(c3cccnc3)=CC[C@@H]12 [Abiraterone] (max concentration tested 5000 nM) | 0 | 0 | 0.394 | 1.01 | 1.83 ± 2 | 0.775 ± 0.16 | 0 | 0 | 0 | 0 | 0 | 0 | 0.133 ± 0.19 | 0 | 0 | -3.84 | 3.26 | 12.6 | 18.7 | 17.1 ± 2.1 | 7.79 ± 0.37 | 4.42 | 3.38 | 5.69 |
| CN(C)C/C=C/C(=O)Nc1cc2c(Nc3ccc(F)c(Cl)c3)ncnc2cc1O[C@H]1CCOC1 [Afatinib] (max concentration tested 1000 nM) | 2.49 | 1.58 | 0 | 0 | 1.88 ± 2.7 | 0 | 0 | 0 | 0 | 0 | 0 | 0 | 0 | 0 | 0 | 29.9 | 21.2 | 8.81 | 3.38 | 11.6 ± 4.3 | 2.97 ± 6.7 | 3.12 | 12.7 | 3.62 |
| COc1cc(Nc2ncc3c(n2)-c2ccc(Cl)cc2C(c2c(F)cccc2OC)=NC3)ccc1C(=O)O [Alisertib] (max concentration tested 10000 nM) | 3.93 | 11.3 | 16.7 | 17.5 | 11.77 ± 0.033 | 18.8 ± 1.3 | 10.5 | 14.9 | 15 | 0 | 0 | 0 | 4.28 ± 3.2 | 7.04 | 18.8 | 44.7 | 64.5 | 65.5 | 57.6 | 50.5 ± 5.3 | 59.1 ± 1 | 59.4 | 58.4 | 47.5 |
| Oc1ncnc2[nH]ncc12 [Allopurinol] (max concentration tested 10000 nM) | 0 | 0 | 0 | 0 | 0 | 0 | 0 | 0 | 0 | 0 | 0 | 0 | 0 | 0 | 0 | 6.72 | 8.43 | 5.09 | 1.63 | -4.6 ± 1.9 | -1.67 ± 0.31 | -3.79 | 6.65 | 8.22 |
| CN(C)c1nc(N(C)C)nc(N(C)C)n1 [Altretamine] (max concentration tested 10000 nM) | 0 | 0 | 0 | 0 | 0 | 0 | 0 | 0 | 0 | 0 | 0 | 0 | 0.0018 ± 0.0026 | 0 | 0 | -1.71 | -1.37 | 6.31 | -0.459 | -7.42 ± 0.53 | -12.7 ± 1.5 | -6.95 | 5.66 | 9.76 |
| CO[C@H]1/C=C\C=C(/C)C(=O)NC2=CC(=O)C(NCCN(C)C)=C(C[C@@H](C)C[C@H](OC)[C@H](O)[C@@H](C)/C=C(\C)[C@@H]1OC(N)=O)C2=O [Alvespimycin] (max concentration tested 1000 nM) | 13.8 | 15.8 | 10 | 9.75 | 12.3 ± 0.18 | 15.4 ± 0.78 | 14.6 | 12.5 | 15.4 | 3.83 | 8.04 | 8.36 | 7.17 ± 1.2 | 6.78 | 7.8 | 85.3 | 100 | 98.1 | 96.2 | 95.7 ± 2.9 | 99.51 ± 0.13 | 98.8 | 91.8 | 78.2 |
| CN1CC[C@H](c2c(O)cc(O)c3c(=O)cc(-c4ccccc4Cl)oc23)[C@H](O)C1 [Alvocidib] (max concentration tested 10000 nM) | 20.4 | 20.6 | 18 | 17.9 | 15.5 ± 0.93 | 21.1 ± 0.91 | 17.8 | 20.1 | 20.5 | 4.23 | 8.24 | 11.7 | 2.61 ± 3.7 | 4.45 | 10.1 | 83.7 | 101 | 85.4 | 89.1 | 81.118 ± 0.0062 | 99.41 ± 0.97 | 79.8 | 95.8 | 97.8 |
| CCC1(c2ccc(N)cc2)CCC(=O)NC1=O (configuration not stated) [Aminoglutethimide] (max concentration tested 10000 nM) | 0 | 0 | 0 | 0 | 0 | 0 | 0 | 0 | 0 | 0 | 0 | 0 | 0 | 0 | 0 | 1.47 | 3.62 | 8.78 | -6.11 | 3.35 ± 1.2 | -7.67 ± 7.8 | -3.31 | 2.67 | -9.69 |
